The test system of this test is dispersed rat anterior pituitary cells (release of rat growth hormone). Briefly: In Vitro (Cell Dispersion) Assay of GRF: growth hormone release measured by RIA. It counts as cell-based, rat (Sprague-Dawley). The note with it: growth hormone release from cultured rat pituitary cells, 4 hours of incubation, peptide 0.8 to 200 fmol per ml; compared with natural GRF(1-44)-NH2 (= 1.0). The procedure:
In Vitro (Cell Dispersion) Assay of GRF
Pituitaries from 30-40 male Sprague-Dawley rats (175 g) were removed aseptically after decapitation. The anterior lobes were collected, washed 3 times in sterile Hepes buffer (0.025 M) (pH 7.35) and dispersed at 37° in 20-30 ml Hepes buffer (pH 7.35) containing collagenase (4 mg per ml) and Dispase (Protease grade II, 2 mg per ml). After gentle 100-110 min vortexing and trituration by Pasteur pipette, the dispersed cells were separated by centrifugation (150×g, 4 min) and re-suspended in Hepes buffer containing neuraminidase ([…]), and 200 µg/ml ethylenediaminetetraacetic acid (EDTA) disodium salt, pH 7.35, for 10 min.
The cells were washed twice with plating medium and plated on multiwell-plates (1.5×10^5 cells per ml) using the following defined medium: F-12/DMEM/BGJ (6:3:1) (Gibco: 430-1700/430-1600/320-2591) with 2 g BSA/1., 2.38 g Hepes/1.50 mg PSN antibiotic mixture (Gibco Laboratories), 10 mg/l transferring (Sigma T2252) with 1.83 g NaHCO3 /l (Baker 3506). The medium in each well was supplemented either with a sample of the novel GRF peptide or natural GRF(1-44)-NH2 at concentrations ranging from 0.8 to 200 fmol per ml of medium. Control wells contained no supplement. Plating was done with this medium added with 2% fetal calf serum to ensure rapid fixation of the cells.
On the fourth day, the cells were washed twice with the defined medium without fetal calf serum. Finally, 900 μl of defined medium was added to each well plus 100 μl of the same medium containing each individual treatment, in triplicate. After 4 hours of incubation the medium was collected and diluted as required to conduct radioimmunoassay (RIAs) for rat growth hormone.
RIAs for rat growth hormone were conducted using Sinha's anti-murine GH immune serum and procedures according to the National Pituitary Agency using protein A to precipitate antibody antigen complex.

Turning to `CC[C@H](C)[C@H](NC(=O)[C@H](C)NC(=O)[C@H](CC(=O)O)NC(=O)[C@H](C)NC(=O)[C@@H](N)Cc1ccc(O)cc1)C(=O)N[C@@H](Cc1ccccc1)C(=O)N[C@H](C(=O)N[C@@H](CC(N)=O)C(=O)N[C@@H](CO)C(=O)N[C@@H](Cc1ccc(O)cc1)C(=O)N[C@@H](CCCNC(=N)N)C(=O)N[C@@H](CCCCN)C(=O)N[C@H](C(=O)N[C@@H](CC(C)C)C(=O)NCC(=O)N[C@@H](CCC(N)=O)C(=O)N[C@@H](CC(C)C)C(=O)N[C@@H](CO)C(=O)N[C@@H](C)C(=O)N[C@@H](CCCNC(=N)N)C(=O)N[C@@H](CCCCN)C(=O)N[C@@H](CC(C)C)C(=O)N[C@@H](CC(C)C)C(=O)N[C@@H](CCC(N)=O)C(=O)N[C@@H](CC(=O)O)C(=O)N[C@H](C(=O)N[C@@H](CCSC)C(=O)N[C@@H](CO)C(=O)N[C@@H](CCCNC(=N)N)C(=O)N[C@@H](CCC(N)=O)C(=O)N[C@@H](CCC(N)=O)C(=O)NCC(=O)N[C@@H](CCC(=O)O)C(=O)N[C@@H](CO)C(=O)N[C@@H](CC(N)=O)C(=O)N[C@@H](CCC(N)=O)C(=O)N[C@@H](CCC(=O)O)C(=O)N[C@@H](CCCNC(=N)N)C(=O)NCC(=O)N[C@@H](C)C(=O)N[C@@H](CCCNC(=N)N)C(=O)N[C@@H](C)C(=O)N[C@@H](CCCNC(=N)N)C(=O)N[C@@H](CC(C)C)C(N)=O)[C@@H](C)CC)C(C)C)[C@@H](C)O` [GRF(1-44)--NH2, GRF(1-44)-NH2, reference compound], the “RELATIVE POTENCY” value stood at 1.0.
With “Cyclo^8,12;21,25 [Asp^8, Ala^15 ]-GRF(1-29)-NH2”, the “RELATIVE POTENCY” value came to 2.24.
Then “Cyclo^8,12;21,25 [N-MethylTyr^1,D-Ala^2, Asp^8, Ala^15 ]-GRF(1-29)-NH2”, with 0.61; and “Cyclo^21,21 [N-MethylTyr^1, D-Ala^2, Ala^15 ]-GRF(1-29)-NH2”, with 1.92; and “Cyclo^21,25 [Ala^15 ]-GRF(1-29)-NH2 [Cyclo^21,25 --[Ala^15]--GRF(1-29)--NH2]”, with 1.27.
Take “Cyclo^21,25 [D-Ala^2, Ala^15 ]-GRF(1-29)-NH2”: the “RELATIVE POTENCY” value stood at 1.99.
Then “Cyclo^21,25 [desNH2 Tyr^1,Ala^15 ]-GRF(1-29)-NH2”, with 1.47.
